This passage reports Ratio IC50 and IC50 results from ChEMBL document CHEMBL4251582 (Eur J Med Chem, 2018).

The species entered for test [1] is Ovis aries. Nature of the test: Selectivity index, ratio of IC50 for ovine COX1 to IC50 for ovine COX2.
Test [2] deals with T1, Prostaglandin G/H synthase 2 (Ovis aries, UniProt P79208).
T1 sequence (P79208 whole entry): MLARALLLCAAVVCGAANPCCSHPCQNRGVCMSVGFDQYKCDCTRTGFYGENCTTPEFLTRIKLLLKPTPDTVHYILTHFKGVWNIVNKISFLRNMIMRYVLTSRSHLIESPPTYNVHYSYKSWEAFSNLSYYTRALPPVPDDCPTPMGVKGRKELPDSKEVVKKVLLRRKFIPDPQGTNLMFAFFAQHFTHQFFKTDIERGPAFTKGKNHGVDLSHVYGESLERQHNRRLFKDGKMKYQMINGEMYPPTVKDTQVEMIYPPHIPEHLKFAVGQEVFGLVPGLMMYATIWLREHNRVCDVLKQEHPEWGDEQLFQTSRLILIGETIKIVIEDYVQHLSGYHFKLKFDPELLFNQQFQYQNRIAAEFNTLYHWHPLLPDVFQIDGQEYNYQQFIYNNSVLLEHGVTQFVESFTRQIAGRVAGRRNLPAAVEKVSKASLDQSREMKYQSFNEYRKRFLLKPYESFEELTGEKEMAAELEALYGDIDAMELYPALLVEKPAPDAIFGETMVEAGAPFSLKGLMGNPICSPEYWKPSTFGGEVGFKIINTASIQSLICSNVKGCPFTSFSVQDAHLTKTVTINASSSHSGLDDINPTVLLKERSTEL
Nature of the test: Inhibition of ovine COX2 using arachidonic acid as substrate assessed as reduction in PGF2alpha production preincubated for 5 mins followed by substrate addition measured after 2 mins by enzyme immunoassay.

Test [3] deals with MCF7. The test is described as follows: Cytostatic activity against human MCF7 cells. The class given is functional, cell-based.
For test [4], the species on record is Homo sapiens. The test is described as follows: Selectivity index, ratio of IC50 for of ERalpha receptor (unknown origin) to IC50 for ERbeta receptor (unknown origin).
Test [5] has as its target T2, Estrogen receptor (Homo sapiens) (UniProt P03372).
T2 sequence (whole entry): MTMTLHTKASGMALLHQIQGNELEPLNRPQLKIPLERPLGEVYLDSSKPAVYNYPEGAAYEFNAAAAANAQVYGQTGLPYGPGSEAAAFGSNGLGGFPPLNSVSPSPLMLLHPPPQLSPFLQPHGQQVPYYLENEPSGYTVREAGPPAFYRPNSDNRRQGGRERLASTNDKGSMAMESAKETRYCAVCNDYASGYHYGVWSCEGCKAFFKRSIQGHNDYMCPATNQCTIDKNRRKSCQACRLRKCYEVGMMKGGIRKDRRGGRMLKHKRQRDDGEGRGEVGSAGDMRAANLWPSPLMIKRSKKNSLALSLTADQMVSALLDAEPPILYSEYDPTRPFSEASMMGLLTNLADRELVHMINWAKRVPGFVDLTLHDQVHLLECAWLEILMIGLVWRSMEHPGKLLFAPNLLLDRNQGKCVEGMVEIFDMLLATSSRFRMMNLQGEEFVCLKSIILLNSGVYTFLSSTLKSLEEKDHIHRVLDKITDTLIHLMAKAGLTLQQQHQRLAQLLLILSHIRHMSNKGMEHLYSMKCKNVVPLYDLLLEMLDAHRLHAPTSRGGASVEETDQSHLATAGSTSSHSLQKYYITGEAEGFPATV
The test is described as follows: Potency index, ratio of tamoxifen IC50 to compound IC50 for binding affinity to ERalpha receptor (unknown origin).

Test [6] concerns the target T3, Estrogen receptor (Homo sapiens, UniProt P03372).
T3 sequence (P03372 whole entry): T2 sequence (whole entry)
Nature of the test: Binding affinity to estrogen receptor (unknown origin).

Test [7] is filed under the species Homo sapiens. Nature of the test: Ratio of selectivity index for test compound to selectivity index for compound for ERalpha (unknown origin) over ERbeta (unknown origin).
The test system of test [8] is MCF7. Nature of the test: Antiproliferative activity against human MCF7 cells. Type of test: functional, cell-based.
Test [9] concerns MCF7. Nature of the test: Cytotoxicity against human MCF7 cells after 72 hrs by LDH assay. Type of test: functional, cell-based. The settings on record: MCF7, 72 h.
Test [10] deals with T3, Estrogen receptor. Nature of the test: Inhibition of estrogen receptor (unknown origin).

Molecules are shown by their SMILES. pIC50: −log10 of the molar value. Where only a bound is given, the exact number is not on record here.

A word on the pIC50: it is the negative decadic logarithm of the IC50, by convention in mol/L.

In the case of `CCCCC(=C(c1ccccc1)c1ccccc1)c1ccc(S(C)(=O)=O)cc1`, in test [1], the Ratio IC50 was more than 7140. Further, the pIC50 in test [2] was 7.85. Consider `CC/C(=C(\c1ccccc1)c1cnn(OCCCN(C)C)c1)c1ccccc1`, for which the pIC50 in test [3] is 5.52. For `CCC(Cc1ccccc1)=C(c1ccc(O)cc1)c1ccc(OCCN2CCCC2)cc1`, the Ratio IC50 was found to be 12 in test [4], 80 in test [5] and 900 in [7]. For the same molecule, the negative logarithm of the IC50 (pIC50) in test [6] was 7.70; in [8], more than 6.60.

`CC/C(Cc1ccccc1)=C(\c1ccccc1)c1ccc(OCCN2CCCC2)cc1`: the pIC50 in test [9] is 4.90. With `CN1CCN(CCOc2ccc(C(=C(C#N)c3ccccc3)c3ccc(OCCN4CCN(C)CC4)cc3)cc2)CC1`, in test [10], the pIC50 was less than 5.00. Turning to `CC/C(=C(\c1ccccc1)c1ccc(OCCN(C)C)cc1)c1ccccc1` [TAMOXIFEN], the pIC50 in test [3] was 5.57. Regarding `CCN(CC)CCOc1ccc(C(=C(C#N)c2ccccc2)c2ccc(OCCN(CC)CC)cc2)cc1`, the pIC50 in [10] is less than 5.00. In test [3], `CCc1c(-c2ccccc2)c2cnn(OCCCN(C)C)c2c2ccccc12` showed a pIC50 of 6.00.
